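Assay format: 96-well plates, 48-hour exposure. GI50 = concentration required for 50% inhibition of growth. Definition used: TGI = concentration required for complete inhibition of growth.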
Experiments:
Assay in all cases: DTP human tumour cell line panel, 48 h
UO-31 renal = system: UO-31 renal
NCI-H23 lung = system: NCI-H23 lung
SNB-19 CNS = system: SNB-19 CNS
OVCAR-8 ovarian = system: OVCAR-8 ovarian
CAKI-1 renal = system: CAKI-1 renal
HOP-62 NSCLC = system: HOP-62 NSCLC
HCT-15 colon = system: HCT-15 colon
UACC-62 melanoma = system: UACC-62 melanoma
TK-10 renal = system: TK-10 renal
CCRF-CEM leukemia = system: CCRF-CEM leukemia
NCI-H522 lung = system: NCI-H522 lung
HS 578T breast = system: HS 578T breast
A498 renal = system: A498 renal

| Compound | TGI (UO-31 renal) [µM] | TGI (NCI-H23 lung) [µM] | TGI (SNB-19 CNS) [µM] | TGI (OVCAR-8 ovarian) [µM] | TGI (CAKI-1 renal) [µM] | TGI (HOP-62 NSCLC) [µM] | TGI (HCT-15 colon) [µM] | TGI (UACC-62 melanoma) [µM] | TGI (TK-10 renal) [µM] | TGI (CCRF-CEM leukemia) [µM] | TGI (NCI-H522 lung) [µM] | TGI (HS 578T breast) [µM] | TGI (A498 renal) [µM] | GI50 (NCI-H23 lung) [µM] | GI50 (OVCAR-8 ovarian) [µM] | GI50 (HOP-62 NSCLC) [µM] | GI50 (HCT-15 colon) [µM] | GI50 (TK-10 renal) [µM] | GI50 (NCI-H522 lung) [µM] |
| --- | --- | --- | --- | --- | --- | --- | --- | --- | --- | --- | --- | --- | --- | --- | --- | --- | --- | --- | --- |
| CC(C)C1=CC(=O)C(C)(C2=NC(C)(C)CO2)c2ccccc21 (configuration not stated) | > 100 | > 100 | > 100 | > 100 | > 100 | > 100 | > 100 | > 100 | > 100 | > 100 | > 100 | – | – | – | – | – | – | – | – |
| C=C(CO)[C@H]1CC/C(C)=C/CC/C(C)=C/C/C=C(\C)[C@H](O)C1 | 93 | 86.9 | > 100 | 35.3 | 75.1 | > 100 | > 100 | 58.4 | 47.7 | > 100 | 32.1 | 74.1 | – | – | – | – | – | – | – |
| Cc1cccc(NC(=O)CSc2nnc(Cc3ccccc3)o2)c1 | > 100 | > 100 | > 100 | > 100 | > 100 | > 100 | > 100 | > 100 | > 100 | > 100 | > 100 | – | > 100 | – | – | – | – | – | – |
| CC[N+](CC)(CC)Cc1cn(S(=O)(=O)c2ccccc2)c2ccccc12 | > 100 | > 100 | > 100 | > 100 | > 100 | > 100 | > 100 | > 100 | > 100 | > 100 | > 100 | – | – | – | – | – | – | – | – |
| Cn1c(=S)[nH]c2c(Cl)cc(Cl)cc2c1=O | > 100 | > 100 | > 100 | > 100 | > 100 | > 100 | > 100 | > 100 | > 100 | 64.7 | > 100 | > 100 | – | – | – | – | – | – | – |
| Cc1nn(-c2ccccc2)c2nc3c(c(C)nn3-c3ccccc3)c(-c3ccccc3Br)c12 | > 100 | > 100 | > 100 | > 100 | > 100 | > 100 | > 100 | > 100 | > 100 | > 100 | > 100 | – | > 100 | – | – | – | – | – | – |
| Cc1c(C(=O)Nc2ccc(Cl)c(C(F)(F)F)c2)oc2cc(O)ccc2/c1=N\NC(N)=S | > 100 | > 100 | > 100 | > 100 | > 100 | > 100 | > 100 | > 100 | > 100 | > 100 | > 100 | – | > 100 | – | – | – | – | – | – |
| O=C(n1[nH]c(=O)n(-c2ccc([N+](=O)[O-])cc2)c1=O)C(Cl)(Cl)Cl | > 75 | > 75 | > 75 | > 75 | > 75 | > 75 | > 75 | > 75 | > 75 | – | > 75 | > 75 | – | – | – | – | – | – | – |
| CC(=O)/C(=C/N1C(=O)CC(=O)NC1=S)C(=O)Nc1ccccc1C | > 100 | > 100 | > 100 | > 100 | > 100 | 64.2 | > 100 | 83.8 | > 100 | – | – | – | > 100 | – | – | – | – | – | – |
| NC(=O)CC1(O)C=CC(=O)C=C1 | > 100 | > 100 | > 100 | > 100 | > 100 | > 100 | > 100 | > 100 | > 100 | > 100 | > 100 | – | > 100 | – | – | – | – | – | – |
| CO[C@H]1C[C@@H]2CC[C@@H](C)[C@@](O)(O2)C(=O)C(=O)N2CCCC[C@H]2C(=O)O[C@H]([C@H](C)C[C@@H]2CC[C@@H](OC(=O)C(C)(CO)CO)[C@H](OC)C2)CC(=O)[C@H](C)/C=C(\C)[C@@H](O)[C@@H](OC)C(=O)[C@H](C)C[C@H](C)/C=C/C=C/C=C/1C | > 100 | > 100 | > 100 | > 86.4 | > 79.7 | > 100 | > 100 | 29.7 | – | – | > 49.6 | 17.2 | – | 1.34 | < 0.0143 | < 0.0202 | < 0.0222 | 0.359 | 0.121 |
| NC(=S)Nc1nnc(-c2ccc(-c3nnc(NC(N)=S)o3)cc2)o1 | > 100 | > 100 | > 100 | > 100 | > 100 | > 100 | > 100 | > 100 | > 100 | > 100 | > 100 | – | > 100 | – | – | – | – | – | – |
| Cc1nc2c(s/c(=N\N)n2-c2ccccc2)c(=O)[nH]1 | > 100 | > 100 | > 100 | > 100 | > 100 | > 100 | > 100 | > 100 | > 100 | > 100 | > 100 | – | > 100 | – | – | – | – | – | – |
| CC1=C(N(C)C)C(=O)c2nc3n(c2C1=O)CCC3OC(N)=O (configuration not stated) | 31.1 | 28.5 | 31.4 | 34.3 | 33.1 | 31.6 | 28.9 | 18 | 32.3 | 42.8 | 28.8 | – | 26.6 | – | – | – | – | – | – |
| O=c1c2cc([N+](=O)[O-])cnc2sn1-c1ccc(Oc2ccccc2)cc1 | > 100 | > 100 | > 100 | > 100 | – | > 100 | > 100 | > 100 | > 100 | > 100 | 34.1 | 96.5 | – | – | – | – | – | – | – |
| CN=C1Nc2ccccc2C(=S)N2CSC[C@@H]12 | > 100 | > 100 | > 100 | > 100 | > 100 | > 100 | > 100 | > 100 | > 100 | – | > 100 | – | > 100 | – | – | – | – | – | – |
| N=c1oc2cc(O)c(O)cc2cc1C(N)=O | > 100 | > 100 | > 100 | > 100 | > 100 | > 100 | > 100 | > 100 | > 100 | > 100 | > 100 | – | > 100 | – | – | – | – | – | – |
| C1=Cc2nc1c(-c1ccccc1)c1ccc([n-]1)c(-c1ccccc1)c1nc(c(-c3ccccc3)c3ccc([n-]3)c2-c2ccccc2)C=C1.[Zn+2] | > 100 | > 100 | > 100 | > 100 | > 100 | > 100 | > 100 | > 100 | > 100 | > 100 | > 100 | – | – | – | – | – | – | – | – |

Reference: PubChem BioAssay (NCI)
